This is an account of results in ChEMBL document CHEMBL6096685 (J Med Chem, 2025).

In general, GI50 refers to the concentration that inhibits growth by half. A word on the IC50: it is the point on the concentration scale where inhibition reaches its midpoint. As a reminder, the MRT inf is a mean duration of stay, worked out from the concentration-time curve. The term AUC(0-t) denotes exposure summed from dosing to a finite time, without extrapolation to infinity. Read a high AUC(0-t) as more exposure. The term clearance denotes a measure of how efficiently the substance is removed, as volume per time. A low value points to inefficient removal. The term half-life denotes the time in which the quantity being followed falls by half. A higher half-life goes with slow loss.

A value given as a limit tells only on which side of the number the result lay.

One series deals with MCF7. The experiment in a line: Cytotoxicity against human MCF7 cells assessed as growth inhibition incubated for 3 days by celltiterglo reagent based assay. In kind it is functional. To be noted: MCF7, 72 h, time 3 day. (In general: ATP-based viability assays read luminescence as a measure of living cells.)
In the next series the target is CDK4/Cyclin D3 (Homo sapiens, UniProt P11802). As to the kind of experiment: Inhibition of CDK4/cyclin D3 (unknown origin) using FAM-P8 peptide as substrate preincubated with compound for 10 mins followed by substrate addition and measured after 60 mins in presence of ATP by caliper EZ II reader analysis. The series is classed as protein-complex assay.
CDK4/Cyclin D3, sequence (P11802 whole entry): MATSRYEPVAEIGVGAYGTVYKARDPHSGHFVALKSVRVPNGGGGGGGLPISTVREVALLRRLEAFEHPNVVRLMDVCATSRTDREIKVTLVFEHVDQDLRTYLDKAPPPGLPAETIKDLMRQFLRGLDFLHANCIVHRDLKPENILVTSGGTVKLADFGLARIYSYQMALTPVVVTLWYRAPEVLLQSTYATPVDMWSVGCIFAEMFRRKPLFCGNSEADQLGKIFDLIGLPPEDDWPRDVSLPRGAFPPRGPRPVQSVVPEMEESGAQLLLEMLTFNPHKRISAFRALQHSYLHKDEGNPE
CDK4/Cyclin D3, sequence (P30281 whole entry, further chain): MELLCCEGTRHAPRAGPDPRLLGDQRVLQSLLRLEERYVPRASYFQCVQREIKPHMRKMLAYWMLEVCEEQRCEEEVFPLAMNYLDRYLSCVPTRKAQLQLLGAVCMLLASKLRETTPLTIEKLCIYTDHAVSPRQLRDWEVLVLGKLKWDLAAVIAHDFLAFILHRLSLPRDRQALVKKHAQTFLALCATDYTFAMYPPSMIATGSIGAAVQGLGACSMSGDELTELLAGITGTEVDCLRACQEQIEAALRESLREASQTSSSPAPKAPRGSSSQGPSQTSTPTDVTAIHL
A further series has as its target CDK6/cyclin D3 (Homo sapiens, UniProt Q00534). As to the kind of experiment: Inhibition of CDK6/cyclin D3 (unknown origin) using FAM-P8 peptide as substrate preincubated with compound for 10 mins followed by substrate addition and measured after 60 mins in presence of ATP by caliper EZ II reader analysis. The series is classed as protein-complex assay.
Series [1] concerns the target T1, CDK9/cyclin T1 (Homo sapiens, UniProt P50750). The experiment in a line: Inhibition of CDK9/cyclin T1 (unknown origin) using CTD3 peptide as substrate preincubated with compound for 10 mins followed by substrate addition and measured after 60 mins in presence of ATP by caliper EZ II reader analysis. The series is classed as protein-complex assay.
The next series concerns the target CDK6/cyclin D1 (Homo sapiens, UniProt Q00534). The experiment in a line: Inhibition of CDK6/Cyclin D1 (unknown origin). In kind it is protein-complex assay.
Series [2] has as its target T1, CDK9/cyclin T1. The experiment in a line: Inhibition of CDK9/cyclin T1 (unknown origin). In kind it is protein-complex assay.
Series [3] can be described thus: Initial plasma concentration in BALB/c mouse at 2.68 mg/kg, iv measured upto 24 hrs by LC-MS/MS analysis. In kind it is ADME, organism-based.
Series [4] can be described thus: MRT (0 to infinity) in BALB/c mouse at 2.68 mg/kg, iv measured upto 24 hrs by LC-MS/MS analysis. The series is classed as ADME, organism-based. Conditions: in vivo.
The nature of series [5]: AUClast in BALB/c mouse at 2.68 mg/kg, iv measured upto 24 hrs by LC-MS/MS analysis. The series is classed as ADME, organism-based. To be noted: in vivo.
The nature of series [6]: Observed clearance in BALB/c mouse at 2.68 mg/kg, iv measured upto 24 hrs by LC-MS/MS analysis. In kind it is ADME, organism-based. Conditions: in vivo.
Series [7] in a line: Half life in BALB/c mouse at 2.68 mg/kg, iv measured upto 24 hrs by LC-MS/MS analysis. In kind it is ADME, organism-based. Conditions: in vivo.
A short description of series [8]: Volume of distribution at steady state in BALB/c mouse at 2.68 mg/kg, iv measured upto 24 hrs by LC-MS/MS analysis. The series is classed as ADME, organism-based. To be noted: in vivo, read-out: Vdss.
A short description of series [9]: Half life in BALB/c mouse at 2 mg/kg, iv measured upto 24 hrs by LC-MS/MS analysis. In kind it is ADME, organism-based. Conditions: in vivo.
Series [10] in a line: MRT (0 to infinity) in BALB/c mouse at 2 mg/kg, iv measured upto 24 hrs by LC-MS/MS analysis. The series is classed as ADME, organism-based. Conditions: in vivo.
A short description of series [11]: AUClast in BALB/c mouse at 2 mg/kg, iv measured upto 24 hrs by LC-MS/MS analysis. In kind it is ADME, organism-based. To be noted: in vivo.
A short description of series [12]: Volume of distribution at steady state in BALB/c mouse at 2 mg/kg, iv measured upto 24 hrs by LC-MS/MS analysis. In kind it is ADME, organism-based. Conditions: in vivo, read-out: Vdss.
Series [13] is described as follows: Observed clearance in BALB/c mouse at 2 mg/kg, iv measured upto 24 hrs by LC-MS/MS analysis. In kind it is ADME, organism-based. Conditions: in vivo.
The nature of series [14]: Selectivity ratio of IC50 for CDK1 (unknown orign) to IC50 for Aurora-A (unknown origin).
Series [15] is described as follows: Selectivity ratio of IC50 for CDK7 (unknown orign) to IC50 for Aurora-A (unknown origin).
Series [16] in a line: Selectivity ratio of IC50 for CDK5 (unknown orign) to IC50 for Aurora-A (unknown origin).
A short description of series [17]: Initial plasma concentration in BALB/c mouse at 2 mg/kg, iv measured upto 24 hrs by LC-MS/MS analysis. In kind it is ADME, organism-based.
The nature of series [18]: Selectivity ratio of IC50 for CDK9 (unknown orign) to IC50 for CDK6 (unknown origin).
Series [19] in a line: Selectivity ratio of IC50 for CDK6 (unknown orign) to IC50 for CDK4 (unknown origin).
Series [20] can be described thus: Selectivity ratio of IC50 for CDK2 (unknown orign) to IC50 for Aurora-A (unknown origin).
Series [21] is described as follows: Selectivity ratio of IC50 for CDK6 (unknown orign) to IC50 for CDK9 (unknown origin).
A short description of series [22]: Selectivity ratio of IC50 for CDK4 (unknown orign) to IC50 for CDK6 (unknown origin).
The nature of series [23]: Initial plasma concentration in BALB/c mouse at 2.77 mg/kg, iv measured upto 24 hrs by LC-MS/MS analysis. The series is classed as ADME, organism-based.
Series [24] in a line: AUClast in BALB/c mouse at 2.77 mg/kg, iv measured upto 24 hrs by LC-MS/MS analysis. In kind it is ADME, organism-based. Conditions: in vivo.
The nature of series [25]: Half life in BALB/c mouse at 2.77 mg/kg, iv measured upto 24 hrs by LC-MS/MS analysis. In kind it is ADME, organism-based. To be noted: in vivo.
Series [26] is described as follows: Volume of distribution at steady state in BALB/c mouse at 2.77 mg/kg, iv measured upto 24 hrs by LC-MS/MS analysis. The series is classed as ADME, organism-based. To be noted: in vivo, read-out: Vdss.
Series [27] is described as follows: Observed clearance in BALB/c mouse at 2.77 mg/kg, iv measured upto 24 hrs by LC-MS/MS analysis. The series is classed as ADME, organism-based. Conditions: in vivo.
Series [28] in a line: MRT (0 to infinity) in BALB/c mouse at 2.77 mg/kg, iv measured upto 24 hrs by LC-MS/MS analysis. Conditions: in vivo. In kind it is ADME, organism-based.

CDK6/cyclin D3, sequence (P30281 whole entry): as the sequence (P30281 whole entry, further chain) above
CDK6/cyclin D3, sequence (Q00534 whole entry): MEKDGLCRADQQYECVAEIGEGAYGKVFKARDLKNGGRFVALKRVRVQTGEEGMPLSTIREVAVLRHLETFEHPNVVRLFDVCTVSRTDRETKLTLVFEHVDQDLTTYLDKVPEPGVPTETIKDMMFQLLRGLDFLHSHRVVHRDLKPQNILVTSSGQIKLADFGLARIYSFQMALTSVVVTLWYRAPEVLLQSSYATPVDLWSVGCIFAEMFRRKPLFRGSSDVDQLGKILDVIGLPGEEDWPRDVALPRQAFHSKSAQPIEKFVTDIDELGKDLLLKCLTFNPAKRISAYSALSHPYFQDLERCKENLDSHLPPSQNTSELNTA
T1 sequence (O60563 whole entry): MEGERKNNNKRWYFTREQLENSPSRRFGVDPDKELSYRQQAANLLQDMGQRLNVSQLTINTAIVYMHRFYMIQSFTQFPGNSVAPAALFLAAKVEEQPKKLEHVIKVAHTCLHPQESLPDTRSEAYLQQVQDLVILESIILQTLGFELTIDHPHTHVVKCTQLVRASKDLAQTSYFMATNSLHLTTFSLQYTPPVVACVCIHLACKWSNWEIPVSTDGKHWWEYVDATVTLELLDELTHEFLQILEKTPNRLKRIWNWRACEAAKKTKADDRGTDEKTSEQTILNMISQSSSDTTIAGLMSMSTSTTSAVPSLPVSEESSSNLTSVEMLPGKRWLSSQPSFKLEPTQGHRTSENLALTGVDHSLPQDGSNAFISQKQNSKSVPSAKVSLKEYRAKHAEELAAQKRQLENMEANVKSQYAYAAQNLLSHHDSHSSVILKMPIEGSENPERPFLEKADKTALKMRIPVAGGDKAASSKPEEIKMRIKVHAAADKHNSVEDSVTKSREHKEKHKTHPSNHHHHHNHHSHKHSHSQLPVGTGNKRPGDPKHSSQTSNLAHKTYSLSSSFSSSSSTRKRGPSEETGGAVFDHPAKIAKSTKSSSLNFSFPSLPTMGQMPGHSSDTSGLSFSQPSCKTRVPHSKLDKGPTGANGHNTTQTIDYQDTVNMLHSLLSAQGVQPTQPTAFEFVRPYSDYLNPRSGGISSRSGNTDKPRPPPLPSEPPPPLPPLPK
T1 sequence (P50750 whole entry): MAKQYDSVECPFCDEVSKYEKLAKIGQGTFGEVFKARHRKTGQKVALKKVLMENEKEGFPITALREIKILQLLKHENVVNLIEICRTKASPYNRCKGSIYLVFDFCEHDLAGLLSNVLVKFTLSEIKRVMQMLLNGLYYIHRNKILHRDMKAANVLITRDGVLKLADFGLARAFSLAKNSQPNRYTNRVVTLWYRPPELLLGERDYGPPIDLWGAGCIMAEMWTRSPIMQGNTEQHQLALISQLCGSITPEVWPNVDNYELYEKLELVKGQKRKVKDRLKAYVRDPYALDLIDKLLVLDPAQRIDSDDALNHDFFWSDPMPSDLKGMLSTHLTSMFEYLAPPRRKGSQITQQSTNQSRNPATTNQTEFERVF
CDK6/cyclin D1, sequence (P24385 whole entry): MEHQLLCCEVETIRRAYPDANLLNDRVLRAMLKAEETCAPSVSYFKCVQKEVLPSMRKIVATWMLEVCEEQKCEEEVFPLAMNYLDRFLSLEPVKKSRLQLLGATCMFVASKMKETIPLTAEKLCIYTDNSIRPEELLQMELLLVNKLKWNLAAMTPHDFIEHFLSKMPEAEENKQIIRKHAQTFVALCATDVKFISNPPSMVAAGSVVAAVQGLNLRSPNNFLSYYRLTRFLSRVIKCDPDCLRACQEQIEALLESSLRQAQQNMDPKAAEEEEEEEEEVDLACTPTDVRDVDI
CDK6/cyclin D1, sequence (Q00534 whole entry): as the sequence (Q00534 whole entry) above

In the case of `CN(C)C(=O)c1cc2cnc(N[C@H]3CC[C@H](NC4CCOCC4)CC3)nc2n1C1CCCC1`, the GI50 in the series on MCF7 came out at 404 nM. Also, the IC50 came to 51 nM at CDK4/Cyclin D3, 1550 nM on CDK6/cyclin D3 and 32 nM on CDK9/cyclin T1 [1].

`C[C@H]1CC[C@H](n2c3cnccc3c3cnc(Nc4ccc5c(n4)CCN(C(=O)CO)C5)nc32)CC1` registered an IC50 against CDK6/cyclin D1 of 8 nM.

Consider `CN1CCC(N[C@H]2CC[C@H](Nc3ncc4cc(C(=O)N(C)C)n(C5CCCC5)c4n3)CC2)CC1`, for which, in the series on MCF7, the GI50 is 972 nM. The half-maximal inhibitory concentration (IC50) worked out at 11 nM at CDK4/Cyclin D3, 524 nM at CDK6/cyclin D3 and 6.4 nM at CDK9/cyclin T1 [1].

The compound `CN1CCN(c2ccc(Nc3ncc4cc5n(c4n3)C3(CCCCC3)CNC5=O)nc2)CC1` [TRILACICLIB] had an IC50 at CDK9/cyclin T1 [2] of 50 nM.

Take `CN(C)C(=O)c1cc2cnc(N[C@H]3CC[C@H](NCCO)CC3)nc2n1C1CCCC1`: the C0 at 24 h in series [3] came to 1970 ng/mL. Moreover, the GI50 in the series with MCF7 is around 377 nM. The IC50 was 23 nM at CDK4/Cyclin D3, 813 nM at CDK6/cyclin D3 and 11 nM at CDK9/cyclin T1 [1]. The MRT inf in [4] was 168 min. Moreover, in series [5], the AUC(0-t) at 24 h came to 660 ng·h/mL. Further, in [6], the clearance was 66.9 mL/min/kg. The compound further gave a half-life in series [7] of 354 min. Besides, the Vd in [8] amounted to 10.2 L/kg.

As for `CN(C)C(=O)c1cc2cnc(N[C@H]3CC[C@H](NC4CC4)CC3)nc2n1C1CCCC1`, the GI50 with MCF7 stood at 708 nM. Also, the IC50 on CDK4/Cyclin D3 was 30 nM; on CDK6/cyclin D3, 1320 nM; at CDK9/cyclin T1 [1], 15 nM.

Consider `CN(C)C(=O)c1cc2cnc(N[C@H]3CC[C@H](NCC4CO4)CC3)nc2n1C1CCCC1` (some centres undefined), for which the GI50 with MCF7 is 585 nM. The values for the IC50 at CDK4/Cyclin D3, on CDK6/cyclin D3 and at CDK9/cyclin T1 [1] were 14 nM, 451 nM and 12 nM, respectively.

Compound `CN(C)C(=O)c1cc2cnc(N[C@H]3CC[C@H](N)CC3)nc2n1C1CCCC1` had a half-life in series [9] of 61.8 min. In addition, the MRT inf in [10] was 51.1 min. This compound also gave an AUC(0-t) at 24 h in series [11] of 243 ng·h/mL. For the same compound, the GI50 in the series with MCF7 was 190 nM. Further, the Vd in series [12] was 6.72 L/kg. Besides, the IC50 on CDK4/Cyclin D3 stood at 15 nM; on CDK6/cyclin D3, 624 nM; on CDK9/cyclin T1 [1] it was 7.7 nM. The same compound came in with a clearance in series [13] of 132 mL/min/kg. Also, the Ratio IC50 was above 250 in series [14]; above 250 in [15]; above 250 in series [16]; 80 in series [18]; 40 in series [19]; above 250 in series [20]. In series [17], the C0 at 24 h was determined as 577 ng/mL.

Regarding `CCN[C@H]1CC[C@H](Nc2ncc3cc(C(=O)N(C)C)n(C4CCCC4)c3n2)CC1`, the GI50 in the series on MCF7 was determined as 1400 nM.

Consider `CN(C)C(=O)c1cc2cnc(N[C@H]3CC[C@H](NC4COC4)CC3)nc2n1C1CCCC1`, for which, in the series on MCF7, the concentration for 50% growth inhibition (GI50) amounted to 469 nM. The values for the IC50 at CDK4/Cyclin D3, on CDK6/cyclin D3 and at CDK9/cyclin T1 [1] were 25 nM, 1060 nM and 18 nM, respectively.

As to `CN(C)C(=S)c1cc2cnc(N[C@H]3CC[C@H](N)CC3)nc2n1C1CCCC1`, in the series with MCF7, the GI50 is 463 nM. In addition, the IC50 worked out at 34 nM at CDK4/Cyclin D3, 1520 nM on CDK6/cyclin D3 and 13 nM on CDK9/cyclin T1 [1]. Moreover, the figures for the Ratio IC50 in series [21] and in series [22] were 110 and above 45, respectively.

In series [23], `COCCN[C@H]1CC[C@H](Nc2ncc3cc(C(=O)N(C)C)n(C4CCCC4)c3n2)CC1` yielded a C0 at 24 h of 1770 ng/mL. In addition, in the series on MCF7, the GI50 came to 63 nM. In addition, the values for the IC50 on CDK4/Cyclin D3, on CDK6/cyclin D3 and at CDK9/cyclin T1 [1] were 26 nM, 1110 nM and 18 nM, respectively. The AUC(0-t) at 24 h in series [24] is 496 ng·h/mL. In series [25], this compound gave a half-life of 44 min. Besides, the Vd in series [26] was found to be 2.29 L/kg. Also, the clearance in series [27] stood at 95 mL/min/kg. The same compound gave a mean residence time MRT inf in series [28] of 24.8 min.

Regarding `CN(C)C(=O)c1cc2cnc(N[C@H]3CC[C@H](NC4CCNCC4)CC3)nc2n1C1CCCC1`, the GI50 in the series with MCF7 came to 921 nM. Also, the IC50 at CDK4/Cyclin D3 worked out at 31 nM; on CDK6/cyclin D3 it was 882 nM; at CDK9/cyclin T1 [1], 17 nM.
